This experiment concerns the target T1, CDK8 (CDK8/CycC) (Homo sapiens, UniProt P49336).
T1 construct: purchased Invitrogen PV4402
Nature of the experiment: FRET based Lanthascreen binding competition assay. As to conditions: 5 nM CDK8/CycC, 10 nM Alexa647-Tracer, 1% DMSO, 60 min at RT; read-out: IC50 CDK8 binding. As to the method: FRET based Lanthascreen binding competition assay: A dye-labeled ATP competitive probe served as a FRET acceptor upon binding to CDK8 labeled with a strepavidin —Eu-chelate (via abiotinylated anti His antibody). […] In case this probe was competed by an inhibitor as such a signal cannot be generated any more. The CDK8 used for this assay was a protein co-expressed with CycC.
The assay procedure for an assay in a 1536 well plate was performed according to the following: 2 μL CDK8/biotin-anti-His Ab/SA-Eu mix in Assay buffer were pipetted into the wells of a micro plate.
1 μL compound in 20 mM Hepes buffer/5% DMSO was added. The plate was shaken for 30 sec and incubated for 20 min at RT. 2 μL Alexa647-probe in assay buffer were added. The plate was shaken for 30 sec again and incubated for 60 min at RT in the dark. Then the plate was read out on a Perkin Elmer Envision (mode LANCE/TRF, excitation 340 nm emission 650 nm).
T1 sequence (P49336 whole entry): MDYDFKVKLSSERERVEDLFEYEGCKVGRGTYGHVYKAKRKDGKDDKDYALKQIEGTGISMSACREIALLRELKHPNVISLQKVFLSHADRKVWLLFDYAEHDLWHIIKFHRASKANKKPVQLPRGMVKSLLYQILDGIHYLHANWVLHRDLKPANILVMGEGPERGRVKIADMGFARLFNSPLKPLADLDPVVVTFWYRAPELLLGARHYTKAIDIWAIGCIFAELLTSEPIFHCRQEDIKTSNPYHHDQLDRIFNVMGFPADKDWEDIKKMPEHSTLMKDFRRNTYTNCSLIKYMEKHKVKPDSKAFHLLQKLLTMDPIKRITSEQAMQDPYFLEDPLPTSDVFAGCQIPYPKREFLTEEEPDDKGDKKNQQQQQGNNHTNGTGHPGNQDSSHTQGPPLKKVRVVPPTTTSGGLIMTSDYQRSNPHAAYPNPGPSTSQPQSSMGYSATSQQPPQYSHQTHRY
T1 sequence (P24863 whole entry partner): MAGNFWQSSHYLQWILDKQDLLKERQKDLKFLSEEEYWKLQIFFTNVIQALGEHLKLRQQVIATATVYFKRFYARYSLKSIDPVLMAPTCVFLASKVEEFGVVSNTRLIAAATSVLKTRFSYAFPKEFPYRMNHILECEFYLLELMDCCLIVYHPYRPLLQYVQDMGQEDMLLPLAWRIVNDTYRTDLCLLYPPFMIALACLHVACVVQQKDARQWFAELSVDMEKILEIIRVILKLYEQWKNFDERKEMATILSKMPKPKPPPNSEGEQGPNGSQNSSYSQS
Usually IC50 stands for the concentration needed to halve the response being measured. On to `Cn1cc(-c2ccc(-c3cncc4ccc(NS(C)(=O)=O)nc34)cc2)cn1` [Compound 2, N-(8-(4-(1-Methyl-1H-pyrazol-4-yl)phenyl)-1,6-naphthyridin-2-yl)methanesulfonamide], for which the IC50 was below 10 nM.
In the case of `CN1c2ccc(-c3cncc4ccc(C(=O)NC5(C)CC5)nc34)cc2CS1(=O)=O` [Compound 8, 8-(1-Methyl-2,2-dioxo-2,3-dihydro-1H-benzo[c]isothiazol-5-yl)-[1,6]naphthyridine-2-carboxylic acid (1-methyl-cyclopropyl)-amide] it was below 10 nM.
As for `CC(=O)NC(=O)c1ccc2cncc(-c3ccc(-c4cnn(C)c4)cc3)c2n1` [Compound 9, 8-[4-(1-Methyl-1H-pyrazol-4-yl)-phenyl]-[1,6]naphthyridine-2-carboxylic acid acetyl-amide], the figure is below 10 nM; as for `CNC(=O)c1nc2c(-c3ccc4c(c3)CS(=O)(=O)N4C)cncc2cc1C` [Compound 12, 3-Methyl-8-(1-methyl-2,2-dioxo-2,3-dihydro-1H-benzo[c]isothiazol-5-yl)-[1,6]naphthyridine-2-carboxylic acid methylamide], below 10 nM.
As for `Cn1cc(-c2ccc(-c3cncc4ccc(C(N)=O)nc34)c(F)c2)cn1` [Compound 14, 8-(2-fluoro-4-(1-methyl-1H-pyrazol-4-yl)phenyl)-1,6-naphthyridine-2-carboxamide], the figure is below 10 nM.
Take `CNC(=O)c1ccc2cncc(-c3ccc4c(c3)N(C)C(=O)C4)c2n1` [Compound 15, 8-(1-methyl-2-oxo-2,3-dihydro-1H-indol-6-yl)-[1,6]naphthyridine-2-carboxylic acid methylamide]: the IC50 was below 10 nM.
In the case of `CN1c2ccc(-c3cncc4ccc(C(=O)NCCN)nc34)cc2CS1(=O)=O` [Compound 16, 8-(1-Methyl-2,2-dioxo-2,3-dihydro-1H-benzo[c]isothiazol-5-yl)-[1,6]naphthyridine-2-carboxylic acid (2-amino-ethyl)-amide] it was below 10 nM.
Regarding `CNC(=O)c1ccc2cncc(-c3ccc(-c4cnn(C)c4)cc3F)c2n1` [Compound 17, 8-(2-fluoro-4-(1-methyl-1H-pyrazol-4-yl)phenyl)-N-methyl-1,6-naphthyridine-2-carboxamide], the half-inhibitory concentration (IC50) is below 10 nM.
For `CN1c2ccc(-c3cncc4ccc(C(=O)N5CCNCC5)nc34)cc2CS1(=O)=O` [Compound 18, [8-(1-Methyl-2,2-dioxo-2,3-dihydro-1H-benzo[c]isothiazol-5-yl)-[1,6]naphthyridin-2-yl]-piperazin-1-yl-methanone], the IC50 was below 10 nM.
In the case of `Cc1cc(-c2cnn(C)c2)ccc1-c1cncc2ccc(C(N)=O)nc12` [Compound 19, 8-(2-methyl-4-(1-methyl-1H-pyrazol-4-yl)phenyl)-1,6-naphthyridine-2-carboxamide] it was below 10 nM; in that of `CN1c2ccc(-c3cncc4ccc(C(=O)NC5CC5)nc34)cc2CS1(=O)=O` [Compound 21, 8-(1-Methyl-2,2-dioxo-2,3-dihydro-1H-benzo[c]isothiazol-5-yl)-[1,6]naphthyridine-2-carboxylic acid cyclopropylamide], below 10 nM; in that of `COC1CN(C(=O)c2ccc3cncc(-c4ccc5c(cnn5C)c4)c3n2)C1` [Compound 22, (3-methoxyazetidin-1-yl)(8-(1-methyl-1H-indazol-5-yl)-1,6-naphthyridin-2-yl)methanone], below 10 nM.
As for `C[C@@H](NC(=O)c1ccc2cncc(-c3ccc(-c4cnn(C)c4)cc3)c2n1)c1ccccc1` [Compound 24, (R)-8-(4-(1-methyl-1H-pyrazol-4-yl)phenyl)-N-(1-phenylethyl)-1,6-naphthyridine-2-carboxamide], the figure is below 10 nM; as for `C[C@H](NC(=O)c1ccc2cncc(-c3ccc(-c4cnn(C)c4)cc3)c2n1)c1ccccc1` [Compound 27, (S)-8-(4-(1-methyl-1H-pyrazol-4-yl)phenyl)-N-(1-phenylethyl)-1,6-naphthyridine-2-carboxamide], below 10 nM.
As for `Cc1cc2cncc(-c3ccc4c(c3)CS(=O)(=O)N4C)c2nc1C(=O)NC1CC1` [Compound 28, 3-Methyl-8-(1-methyl-2,2-dioxo-2,3-dihydro-1H-benzo[c]isothiazol-5-yl)-[1,6]naphthyridine-2-carboxylic acid cyclopropylamide], the figure is below 10 nM; as for `O=C(c1ccc2cncc(-c3ccc4c(c3)CS(=O)(=O)N4)c2n1)N1CCC(F)(F)C1` [Compound 30, (3,3-difluoro-pyrrolidin-1-yl)-[8-(2,2-dioxo-2,3-dihydro-1H-benzo[c]isothiazol-5-yl)-[1,6]naphthyridin-2-yl]-methanone], below 10 nM.
Regarding `COC1CN(C(=O)c2ccc3cncc(-c4ccc(-c5cnn(CC(C)(C)O)c5)cc4)c3n2)C1` [Compound 31, (8-(4-(1-(2-hydroxy-2-methylpropyl)-1H-pyrazol-4-yl)phenyl)-1,6-naphthyridin-2-yl)(3-methoxyazetidin-1-yl)methanone], the 50% inhibitory concentration (IC50) is below 10 nM.
As for `CNC(=O)c1ccc2c(N)ncc(-c3ccc4c(c3)CS(=O)(=O)N4C)c2n1` [Compound 32, 5-Amino-8-(1-methyl-2,2-dioxo-2,3-dihydro-1H-benzo[c]isothiazol-5-yl)-[1,6]naphthyridine-2-carboxylic acid methylamide], the figure is below 10 nM; as for `COC1CN(C(=O)c2ccc3cncc(-c4ccc5nn(CC(C)(C)O)cc5c4)c3n2)C1` [Compound 33, (8-(2-(2-hydroxy-2-methylpropyl)-2H-indazol-5-yl)-1,6-naphthyridin-2-yl)(3-methoxyazetidin-1-yl)methanone], below 10 nM; as for `O=C(c1ccc2cncc(Br)c2n1)N1CCC[C@H]1c1ccc(Cl)cc1` [Compound 34, (S)-(8-bromo-1,6-naphthyridin-2-yl)(2-(4-chlorophenyl)pyrrolidin-1-yl)methanone], below 10 nM.
With `Cn1cc(-c2ccc(-c3cncc4ccc(C(=O)N5CCC(F)(F)CC5)nc34)cc2)cn1` [Compound 35, (4,4-difluoropiperidin-1-yl)(8-(4-(1-methyl-1H-pyrazol-4-yl)phenyl)-1,6-naphthyridin-2-yl)methanone], the IC50 is below 10 nM.
In the case of `Cc1cncc2ccc(C(=O)N[C@H](C)c3ccccc3)nc12` [Compound 36, (R)-8-methyl-N-(1-phenylethyl)-1,6-naphthyridine-2-carboxamide] it was below 10 nM; in that of `O=C(c1ccc2cnccc2n1)N1CCC[C@H]1c1ccc(Cl)cc1` [Compound 37, (S)-(2-(4-chlorophenyl)pyrrolidin-1-yl)(1,6-naphthyridin-2-yl)methanone], below 10 nM.
In the case of `CC(=O)NCc1ccc2cncc(-c3ccc4c(c3)CS(=O)(=O)N4C)c2n1` [Compound 38, N-[8-(1-Methyl-2,2-dioxo-2,3-dihydro-1H-benzo[c]isothiazol-5-yl)-[1,6]naphthyridin-2-ylmethyl]-acetamide] it was 10 to 100 nM; in that of `CNC(=O)c1ccc2c(N)ncc(-c3ccc(-c4cnn(C)c4)cc3F)c2n1` [Compound 40, 5-amino-8-(2-fluoro-4-(1-methyl-1H-pyrazol-4-yl)phenyl)-N-methyl-1,6-naphthyridine-2-carboxamide], 10 to 100 nM.
In the case of `Cc1cc2cncc(-c3ccc4c(c3)CS(=O)(=O)N4C)c2nc1C(=O)N1CCC(F)(F)C1` [Compound 41, (3,3-Difluoro-pyrrolidin-1-yl)-[3-methyl-8-(1-methyl-2,2-dioxo-2,3-dihydro-1H-benzo[c]isothiazol-5-yl)-[1,6]naphthyridin-2-yl]-methanone], the IC50 lay in the range of 10 to 100 nM.
Consider `Cn1cc(-c2ccc(-c3cncc4ccc(-c5nn[nH]n5)nc34)cc2)cn1` [Compound 42, 8-(4-(1-methyl-1H-pyrazol-4-yl)phenyl)-2-(2H-tetrazol-5-yl)-1,6-naphthyridine], for which the IC50 lay within 10 to 100 nM.
For `CNC(=O)c1ccc2cncc(-c3ccc(-c4cnn(C)c4)cc3C)c2n1` [Compound 43, N-methyl-8-(2-methyl-4-(1-methyl-1H-pyrazol-4-yl)phenyl)-1,6-naphthyridine-2-carboxamide], the IC50 was 10 to 100 nM.
As for `CN(CCO)C(=O)c1ccc2cncc(-c3ccc4c(c3)CS(=O)(=O)N4)c2n1` [Compound 45, 8-(2,2-Dioxo-2,3-dihydro-1H-benzo[c]isothiazol-5-yl)-[1,6]naphthyridine-2-carboxylic acid (2-hydroxy-ethyl)-methyl-amide], the figure is 10 to 100 nM; as for `CN(C)C(=O)c1ccc2cncc(-c3ccc4c(c3)CS(=O)(=O)N4)c2n1` [Compound 46, 8-(2,2-Dioxo-2,3-dihydro-1H-benzo[c]isothiazol-5-yl)-[1,6]naphthyridine-2-carboxylic acid dimethylamide], 10 to 100 nM.
In the case of `C[C@@H](NC(=O)c1ccc2cncc(Br)c2n1)c1ccccc1` [Compound 48, (R)-8-bromo-N-(1-phenylethyl)-1,6-naphthyridine-2-carboxamide] it was 10 to 100 nM; in that of `COC1CN(C(=O)c2ccc3cncc(-c4ccc(-c5cn(C)nc5C(F)(F)F)cc4)c3n2)C1` [Compound 49, (3-methoxyazetidin-1-yl)(8-(4-(1-methyl-3-(trifluoromethyl)-1H-pyrazol-4-yl)phenyl)-1,6-naphthyridin-2-yl)methanone], 10 to 100 nM; in that of `Nc1ncc(-c2ccc3c(c2)CS(=O)(=O)N3)c2nc(C(=O)N3CCC(F)(F)C3)ccc12` [Compound 50, (5-Amino-8-(2,2-dioxido-1,3-dihydrobenzo[c]isothiazol-5-yl)-1,6-naphthyridin-2-yl)(3,3-difluoropyrrolidin-1-yl)methanone], 10 to 100 nM.

The values are drawn from US20160016951A1 (Merck Patent GmbH, priority 2014, published 2016).
